Reference: patent publication US20260069671A1, “MICELLE COMPRISING AMPHIPHILIC PEPTIDE, AND ANTIGEN CARRIER NANOPARTICLE USING SAME” (RTAB CO., LTD., priority 2022, published 2026)

Columns and labels:
[1] = Nanoparticle size measurement with Zetasizer Nano ZS; type: physicochemical; details: diluted in ultrapure water, room temperature, triplicate mean +/- standard deviation
Method: Recombinant amphiphilic peptides and hapten peptides were produced and provided by Anygen in Gwangju, Korea. In order to prepare nanoparticles (particulate soluble hapten) using amphiphilic peptides, amphiphilic peptides (peptides of SEQ ID NOs: 1 to 4, respectively) were dissolved in distilled water at a concentration of 4 mg/mL. Then, hapten peptides (peptides of SEQ ID NOs: 5 to 11, respectively) were dissolved in distilled water at a concentration of 0.5 mg/mL. Afterwards, a fixed amount of hapten (50 μg) was mixed with two different amounts of amphiphilic peptide at a ratio of 3:1 and 1:3 (w/w) and incubated for 30 minutes at room temperature (25° C.).
In order to characterize the sizes of amphiphilic peptides and nanoparticles, the diameters of micelles and nanoparticles formed by amphiphilic peptides (carriers) were measured with a Zetasizer Nano ZS system (Malvern Instruments, Malvern, UK). After digestion, the micelle stock solution was added to the cuvette. After 30-minute incubation, nanoparticles were diluted to a final volume of 1 mL. The average size was then analyzed with Dispersion Technology software 4.3. Nanoparticles were diluted using ultrapure water (refractive index 1.33, viscosity 0.89) and used for analysis at room temperature. Observations were presented as triplicate means +/−standard deviation.

BALB/c mice [2] = experiment: ELISA of hapten peptide-specific IgG/IgM in blood of immunized mice; type: in vivo, mouse; details: FIG. 6
Method: (§1) Female BALB/C mice were purchased from Nara Biotech, Seoul, Korea, were 6 weeks old, and were bred under pathogen-free conditions. This study was conducted in accordance with the strict guidelines for the care and use of laboratory animals of the National Institutes of Health. The protocol was approved by the Animal Care Committee of Hanyang University Animal Hospital. For immunization, nanoparticles were emulsified with aluminum hydroxide (20 mg/100 μL, Sigma-Aldrich, St Louis, MO, USA). The mice were injected with 150 μg carrier dissolved in 150 μL phosphate buffered saline (PBS). The mice were injected with 50 μg hapten dissolved in 150 μL PBS. The mice were injected with 3:1 (w/w) nanoparticles (150 μg carrier and 50 μg hapten) combined with 150 μL PBS and 40 mg aluminum hydroxide. The mice were injected with 1:3 (w/w) nanoparticles (16.67 μg carrier and 50 μg hapten) combined with 150 μL PBS and 40 mg aluminum hydroxide. All groups were injected by intraperitoneal route and again on day 21. Blood was collected through the jugular vein twice a week and centrifuged at 2,000 g for 20 minutes. Serum was collected from centrifuged blood and frozen at −20° C. until being analyzed by ELSIA. The mice were sacrificed on day 35. Whole blood was collected and centrifuged at 2,000 g for 20 minutes. Serum was collected from centrifuged blood and frozen at −20° C. until being analyzed by dot blot. […]

BALB/c mice [3] = experiment: Antibody detection by dot blot in serum of immunized mice; type: in vivo, mouse; details: serum of day 35, serially diluted recombinant protein, FIG. 10
Method: as §1, with “The mice were injected with 1:3 (w/w) nanoparticles (16.67 μg carrier and 50 μg hapten) combined with 150 μL PBS and 40 mg aluminum hydroxide. All groups were injected by intraperitoneal route and again on day 21. Blood was collected through the jugular vein twice a week and centrifuged at 2,000 g for 20 minutes.” left out, “The mice were sacrificed on day 35. Whole blood was collected and centrifuged at 2,000 g for 20 minutes.” left out
For determination of nanoparticle (or hapten peptide)-specific antibodies, serial dilutions of the recombinant protein were seeded on PVDF membranes at a concentration of 1.2 μg/μL to 12 ng/μL. […] Afterwards, the enhanced chemiluminescence solution (ECL) was treated with a membrane and directly analyzed with chemiscope 3400 (CLINX, China). […]

[4] = tested on: CD19 positive B cells reacting with DDOST protein labeled with Alexa 647; experiment: Live cell flow cytometry of hapten-specific B cells in splenocytes of immunized mice; type: in vivo, mouse; details: FIG. 11
Method: as §1, with “All groups were injected by intraperitoneal route and again on day 21. Blood was collected through the jugular vein twice a week and centrifuged at 2,000 g for 20 minutes.” left out, “The mice were sacrificed on day 35. Whole blood was collected and centrifuged at 2,000 g for 20 minutes.” left out
(§2) In order to identify nanoparticle (or hapten peptide)-specific lymphocyte populations, live cell flow cytometry was performed. […] After rinsing, the cells were filtered through a 40 μm cell strainer and counted. […]

[5] = tested on: hapten and CD8 specific T cells; experiment: Live cell flow cytometry of hapten-specific cytotoxic T cells in splenocytes of immunized mice; type: in vivo, mouse
Method: as §1, with “All groups were injected by intraperitoneal route and again on day 21. Blood was collected through the jugular vein twice a week and centrifuged at 2,000 g for 20 minutes.” left out, “The mice were sacrificed on day 35. Whole blood was collected and centrifuged at 2,000 g for 20 minutes.” left out
as §2

mice = experiment: Comparison of antibodies induced by nanoparticles and by the KLH conjugate method (FIG. 7); type: in vivo, mouse; details: compared with keyhole limpet hemocyanin method
Method: In addition, when the antibodies identified by Western blot were pre-reacted with the incomplete water-soluble antigen (lower panel of FIG. 7), all bands disappeared, confirming that all antibodies that were produced were specifically generated against the incomplete water-soluble antigen. After completion of the experiment, the spleens of the used animals were removed, splenocytes were isolated, and the analysis of B cells and T cells was performed through flow cytometry.

Substance | Z-ave [1] [nm·days] | expression of hapten peptide-specific IgG and IgM antibodies in mouse blood (BALB/c mice [2]) | hapten peptide-specific IgG dots (dot blot) (BALB/c mice [3]) | change in ratio of B cells responding to the target protein [4] | hapten-specific B cells, lower gating group ([4]; splenocytes day 35, Alexa 647 positive channel) [%] | change in proportion of CD8 T cells reacting to the target protein ([5]; FIG. 12) | hapten and CD8 specific T cells, lower gating group ([5]; splenocytes day 35, FIG. 12) [%] | antibody production (FIG. 7, top panel) (mice)
RRRVVVVVV (micelle self-assembly) [Carrier, amphiphilic peptide of three arginines and six valines forming micelles by self-assembly] | 193.8 ± 97.3 | no significant increase | no concentrated dots | no significant change | 15.1 | did not show significant changes | 0.78 | –
keyhole limpet hemocyanin | – | – | – | – | – | – | – | antibodies were produced
